Activity calls are given as the source filed them.
Assays:
[1] = molecular target: T1, Tyrosine-protein phosphatase non-receptor type 7 (Homo sapiens, UniProt P35236); test: Dose Response confirmation of compounds that inhibit HePTP. [Related pubchem assays (depositor defined):AID1059, AID1661, AID2085]; format: functional
T1 sequence (P35236 whole entry): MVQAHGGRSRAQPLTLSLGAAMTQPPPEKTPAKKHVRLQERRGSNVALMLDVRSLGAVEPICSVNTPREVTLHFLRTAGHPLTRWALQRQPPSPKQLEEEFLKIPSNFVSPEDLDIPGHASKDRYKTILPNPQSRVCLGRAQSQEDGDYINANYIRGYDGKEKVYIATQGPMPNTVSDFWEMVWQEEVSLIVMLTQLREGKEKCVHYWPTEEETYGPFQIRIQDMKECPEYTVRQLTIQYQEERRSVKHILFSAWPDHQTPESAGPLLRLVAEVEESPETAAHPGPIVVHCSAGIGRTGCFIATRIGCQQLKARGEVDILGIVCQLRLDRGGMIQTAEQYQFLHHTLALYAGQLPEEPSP

[2] = molecular target: T2, Dual specificity protein phosphatase 3 (Homo sapiens, UniProt P51452); test: Dose Response Confirmation of compounds that inhibit VHR1 in Fluorescent Assay. [Related pubchem assays (depositor defined):AID1661, AID1878]; format: functional
Cytochrome P450 2C19 = Cytochrome P450 2C19 (Homo sapiens, UniProt P33261); test: Cytochrome panel assay with activity outcomes. Panel member name: p450-cyp2c19 Compounds with AC50 equal or less than 10 uM are considered active; format: functional; conditions: read-out: AC50
[3] = molecular target: T2, Dual specificity protein phosphatase 3; test: SAR VHR1 Fluorescent Assay for In Vitro dose response studies Set 3. [Related pubchem assays (depositor defined):AID1654, AID1661, AID1878]; format: functional
Cytochrome P450 1A2 = molecular target: T3, Cytochrome P450 1A2 (Homo sapiens, UniProt P05177);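 further: PubChem cytochrome P450 panel assay, CYP1A2 panel member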
T3 sequence (P05177 whole entry): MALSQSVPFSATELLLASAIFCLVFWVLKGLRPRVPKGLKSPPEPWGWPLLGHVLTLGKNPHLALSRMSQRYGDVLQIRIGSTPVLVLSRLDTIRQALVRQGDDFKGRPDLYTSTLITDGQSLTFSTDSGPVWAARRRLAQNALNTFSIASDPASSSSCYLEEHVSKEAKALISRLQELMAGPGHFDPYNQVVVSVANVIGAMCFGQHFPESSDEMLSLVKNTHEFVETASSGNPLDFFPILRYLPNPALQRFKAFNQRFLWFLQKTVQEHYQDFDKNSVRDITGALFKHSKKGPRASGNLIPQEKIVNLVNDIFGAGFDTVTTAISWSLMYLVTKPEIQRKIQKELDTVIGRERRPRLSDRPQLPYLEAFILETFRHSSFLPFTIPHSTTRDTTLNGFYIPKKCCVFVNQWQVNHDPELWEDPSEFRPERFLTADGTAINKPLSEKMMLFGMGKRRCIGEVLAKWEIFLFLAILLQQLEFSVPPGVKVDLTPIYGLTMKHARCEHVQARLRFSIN

Cytochrome P450 3A4 = Cytochrome P450 3A4 (Homo sapiens, UniProt P08684);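 further: CYP3A4 tested as one member of a cytochrome P450 panel screen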
Cytochrome P450 2C9 = Cytochrome P450 2C9 (Homo sapiens, UniProt P11712)
[4] = inhibitors of intracellular T. cruzi replication, confirmation, NIH3T3 host cells, beta-gal luminescence (AID 2044); format: functional, cell-based;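 further: intracellular parasites grown in NIH/3T3 mouse fibroblasts as host cells; luminescent beta-galactosidase reporter signal from transgenic T. cruzi replicating inside host cells; inhibitors lower the luminescence signal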
[5] = cytotoxicity toward NIH3T3 fibroblasts, dose response, counter-screen, cell-based, ATP luminescence, mouse fibroblasts (AID 2010); format: functional;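 further: cells exposed to compound for about 90 hours before reading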
[6] = THP-1 cell cytotoxicity, dose response, cytotoxicity control for non-replicating M. tuberculosis project (AID 489025); format: functional
[7] = HepG2 cell cytotoxicity, dose response, cytotoxicity control for non-replicating M. tuberculosis project (AID 489018); format: functional; conditions: Mycobacterium tuberculosis
[8] = Vero E6 cell cytotoxicity, dose response, cytotoxicity control for non-replicating M. tuberculosis project, secondary assay (AID 492998); format: functional, VeroE6; conditions: Vero C1008
cells = format: functional
Vero = test: cells; format: functional; conditions: Chlorocebus sabaeus
[9] = molecular target: T4, Tyrosine-protein phosphatase non-receptor type 22 (Homo sapiens, UniProt Q9Y2R2); test: SAR LYP1 Fluorescent Assay using pCAP substrate for In Vitro dose response studies - Set 2. [Related pubchem assays (depositor defined):AID1779, AID1784, AID2135, AID449727]; format: functional
T4 sequence (Q9Y2R2 whole entry): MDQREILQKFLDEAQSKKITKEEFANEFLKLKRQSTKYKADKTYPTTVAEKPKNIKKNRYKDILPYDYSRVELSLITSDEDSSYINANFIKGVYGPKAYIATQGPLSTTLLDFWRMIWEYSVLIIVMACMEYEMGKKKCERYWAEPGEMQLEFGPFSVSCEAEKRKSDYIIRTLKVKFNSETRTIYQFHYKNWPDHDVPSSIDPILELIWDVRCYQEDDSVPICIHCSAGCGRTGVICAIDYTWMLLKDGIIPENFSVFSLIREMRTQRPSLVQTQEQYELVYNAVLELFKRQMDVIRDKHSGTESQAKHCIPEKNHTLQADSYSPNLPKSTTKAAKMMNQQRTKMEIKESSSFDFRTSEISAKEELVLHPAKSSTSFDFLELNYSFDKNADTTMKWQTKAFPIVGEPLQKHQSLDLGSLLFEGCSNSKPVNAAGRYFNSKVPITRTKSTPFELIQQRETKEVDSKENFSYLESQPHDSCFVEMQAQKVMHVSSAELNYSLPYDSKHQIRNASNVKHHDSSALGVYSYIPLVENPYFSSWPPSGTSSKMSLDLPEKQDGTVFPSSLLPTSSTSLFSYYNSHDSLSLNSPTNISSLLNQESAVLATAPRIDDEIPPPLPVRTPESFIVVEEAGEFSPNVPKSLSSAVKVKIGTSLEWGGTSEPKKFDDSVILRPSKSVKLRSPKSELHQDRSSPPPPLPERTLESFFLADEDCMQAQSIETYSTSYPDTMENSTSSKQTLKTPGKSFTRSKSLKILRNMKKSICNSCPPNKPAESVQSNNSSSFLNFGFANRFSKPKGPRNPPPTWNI

[10] = molecular target: Tyrosine-protein phosphatase non-receptor type 12 (Homo sapiens, UniProt Q05209); test: SAR Selectivity Analysis of small molecule inhibitors of PEST using pCAP in a fluorescence assay. [Related pubchem assays (depositor defined):AID1779, AID1784, AID2135]; format: functional
[11] = molecular target: T4, Tyrosine-protein phosphatase non-receptor type 22; test: SAR LYP1 Fluorescent Assay using OMFP substrate for In Vitro dose response studies - Set 3. [Related pubchem assays (depositor defined):AID1779, AID1784, AID2140, AID2686]; format: functional
[12] = molecular target: T1, Tyrosine-protein phosphatase non-receptor type 7; test: HePTP (PTPN7) phosphatase inhibitor potency, SAR follow-up, biochemical, set 2 (AID 449736); format: functional
[13] = molecular target: T4, Tyrosine-protein phosphatase non-receptor type 22; test: LYP (PTPN22) phosphatase inhibitor potency, SAR follow-up, biochemical, pCAP fluorogenic substrate, fluorescence, set 3 (AID 449727); format: functional
[14] = molecular target: T4, Tyrosine-protein phosphatase non-receptor type 22; test: SAR LYP1 Fluorescent Assay using OMFP substrate for In Vitro dose response studies - Set 2. [Related pubchem assays (depositor defined):AID1779, AID1784, AID2140, AID449726, AID488869]; format: functional
[15] = molecular target: T5, Carboxy-terminal domain RNA polymerase II polypeptide A small phosphatase 1 (Homo sapiens, UniProt Q9GZU7); test: inhibitors of CTDSP1, concentration-response testing, biochemical assay, absorbance-based, actives from ultra-high-throughput screening (AID 540297); format: functional
T5 sequence (Q9GZU7 whole entry): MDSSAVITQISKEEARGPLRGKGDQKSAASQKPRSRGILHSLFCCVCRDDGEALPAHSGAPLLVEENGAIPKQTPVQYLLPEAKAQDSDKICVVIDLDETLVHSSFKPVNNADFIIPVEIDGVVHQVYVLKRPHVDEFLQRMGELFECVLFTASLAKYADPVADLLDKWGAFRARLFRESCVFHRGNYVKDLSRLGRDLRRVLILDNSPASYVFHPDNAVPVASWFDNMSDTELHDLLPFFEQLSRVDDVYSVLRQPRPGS

J774.A1 = test: Confirmation of image-based Screening Assay for Inhibitors of Phagocytosis. [Related pubchem assays (depositor defined):AID1029, AID1643]; format: functional, cell-based; conditions: Mus musculus
[16] = molecular target: G-protein coupled receptor 55 (Homo sapiens, UniProt Q9Y2T6); test: GPR55 agonists via beta-arrestin recruitment, primary screen, imaging, U2OS cells, beta-arrestin-GFP redistribution (AID 1961); format: functional
Sequence of G-protein coupled receptor 55 (Q9Y2T6 whole entry): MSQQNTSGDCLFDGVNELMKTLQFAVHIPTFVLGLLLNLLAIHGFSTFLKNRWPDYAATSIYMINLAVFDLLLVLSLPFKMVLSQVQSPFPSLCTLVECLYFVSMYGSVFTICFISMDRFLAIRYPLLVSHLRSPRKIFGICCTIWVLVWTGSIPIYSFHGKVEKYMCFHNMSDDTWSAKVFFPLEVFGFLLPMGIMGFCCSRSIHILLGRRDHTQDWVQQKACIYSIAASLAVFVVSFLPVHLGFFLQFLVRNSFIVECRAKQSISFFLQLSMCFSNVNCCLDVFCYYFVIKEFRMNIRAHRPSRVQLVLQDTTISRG

T2 sequence (P51452 whole entry): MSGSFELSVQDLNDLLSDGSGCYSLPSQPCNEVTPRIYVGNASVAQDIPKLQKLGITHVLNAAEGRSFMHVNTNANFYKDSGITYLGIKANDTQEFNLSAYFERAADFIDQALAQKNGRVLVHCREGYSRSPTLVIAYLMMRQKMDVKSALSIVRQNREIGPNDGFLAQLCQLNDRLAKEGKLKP
Sequence of Cytochrome P450 2C9 (P11712 whole entry): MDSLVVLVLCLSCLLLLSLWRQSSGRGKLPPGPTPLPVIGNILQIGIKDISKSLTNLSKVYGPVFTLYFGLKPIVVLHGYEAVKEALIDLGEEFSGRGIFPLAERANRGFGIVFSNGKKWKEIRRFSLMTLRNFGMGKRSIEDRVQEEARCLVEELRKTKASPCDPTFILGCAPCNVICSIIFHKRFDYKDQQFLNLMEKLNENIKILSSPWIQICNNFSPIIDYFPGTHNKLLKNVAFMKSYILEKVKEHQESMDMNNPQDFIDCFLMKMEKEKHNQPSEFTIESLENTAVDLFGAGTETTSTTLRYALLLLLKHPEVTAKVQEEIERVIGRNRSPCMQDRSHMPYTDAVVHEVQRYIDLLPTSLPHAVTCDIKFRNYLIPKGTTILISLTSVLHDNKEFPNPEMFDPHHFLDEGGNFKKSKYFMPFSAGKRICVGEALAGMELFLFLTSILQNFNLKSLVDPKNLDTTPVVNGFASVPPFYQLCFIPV
Sequence of Tyrosine-protein phosphatase non-receptor type 12 (Q05209 whole entry): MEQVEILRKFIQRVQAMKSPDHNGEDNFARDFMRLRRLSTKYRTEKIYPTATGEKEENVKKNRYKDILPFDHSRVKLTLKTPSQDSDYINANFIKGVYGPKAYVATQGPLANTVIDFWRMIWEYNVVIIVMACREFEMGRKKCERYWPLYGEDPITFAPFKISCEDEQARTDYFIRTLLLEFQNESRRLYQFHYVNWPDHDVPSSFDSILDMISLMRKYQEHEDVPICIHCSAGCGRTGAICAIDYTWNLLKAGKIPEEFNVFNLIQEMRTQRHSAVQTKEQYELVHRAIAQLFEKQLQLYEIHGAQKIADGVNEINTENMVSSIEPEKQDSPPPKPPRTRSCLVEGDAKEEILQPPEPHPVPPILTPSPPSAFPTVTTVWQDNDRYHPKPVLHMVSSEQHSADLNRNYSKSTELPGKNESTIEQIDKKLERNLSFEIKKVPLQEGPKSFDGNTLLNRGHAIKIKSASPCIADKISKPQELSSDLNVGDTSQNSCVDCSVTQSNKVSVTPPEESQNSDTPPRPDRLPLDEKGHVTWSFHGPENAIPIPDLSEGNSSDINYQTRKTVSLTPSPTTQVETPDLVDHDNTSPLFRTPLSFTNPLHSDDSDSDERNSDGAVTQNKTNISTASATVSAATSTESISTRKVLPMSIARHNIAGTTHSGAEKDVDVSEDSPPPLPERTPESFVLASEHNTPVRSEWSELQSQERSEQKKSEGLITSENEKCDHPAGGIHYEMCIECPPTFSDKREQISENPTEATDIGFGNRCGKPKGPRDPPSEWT
Sequence of Cytochrome P450 2C19 (P33261 whole entry): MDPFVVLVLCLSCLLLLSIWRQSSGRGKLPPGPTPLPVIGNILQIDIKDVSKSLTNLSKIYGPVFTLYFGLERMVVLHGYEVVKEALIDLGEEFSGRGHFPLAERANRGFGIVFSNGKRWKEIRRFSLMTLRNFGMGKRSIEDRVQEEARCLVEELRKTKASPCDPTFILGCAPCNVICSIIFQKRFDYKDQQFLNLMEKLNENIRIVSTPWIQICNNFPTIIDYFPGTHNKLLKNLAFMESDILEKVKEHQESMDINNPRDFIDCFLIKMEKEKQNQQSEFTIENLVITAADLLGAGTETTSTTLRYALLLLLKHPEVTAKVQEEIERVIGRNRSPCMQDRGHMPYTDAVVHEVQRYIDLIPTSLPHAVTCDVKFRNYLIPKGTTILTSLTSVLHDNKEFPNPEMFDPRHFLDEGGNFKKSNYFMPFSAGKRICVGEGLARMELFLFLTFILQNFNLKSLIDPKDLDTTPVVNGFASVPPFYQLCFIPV
Sequence of Cytochrome P450 3A4 (P08684 whole entry): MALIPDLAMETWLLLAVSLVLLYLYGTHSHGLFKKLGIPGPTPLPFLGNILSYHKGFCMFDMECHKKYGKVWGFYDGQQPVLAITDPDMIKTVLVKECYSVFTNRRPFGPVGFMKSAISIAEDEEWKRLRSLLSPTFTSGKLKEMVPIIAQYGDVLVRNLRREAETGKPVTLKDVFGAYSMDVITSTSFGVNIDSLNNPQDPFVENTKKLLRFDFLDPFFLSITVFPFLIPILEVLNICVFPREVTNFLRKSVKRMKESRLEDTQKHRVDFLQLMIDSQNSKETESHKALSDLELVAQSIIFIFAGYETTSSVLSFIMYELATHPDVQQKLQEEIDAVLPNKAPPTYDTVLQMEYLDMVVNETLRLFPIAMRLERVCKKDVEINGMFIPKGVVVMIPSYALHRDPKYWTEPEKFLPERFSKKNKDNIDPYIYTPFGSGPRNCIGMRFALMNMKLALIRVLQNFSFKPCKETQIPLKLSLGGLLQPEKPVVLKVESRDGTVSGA

**Q.** With Cc1ccc(-c2nc3ccccc3s2)cc1NC(=O)c1cc(-n2cnnc2)ccc1Cl as the molecule, how does the IC50 [1] read?
**A.** 4.69 µM (active)

**Q.** And the IC50 [2]?
**A.** 2.21 µM (active)

**Q.** What about the AC50 (Cytochrome P450 2C19) of the same molecule?
**A.** 0.794 µM (inconclusive)

**Q.** And the IC50 [3]?
**A.** 3.69 µM (active)

**Q.** What about the AC50 (Cytochrome P450 1A2) of the same molecule?
**A.** 2.24 µM (inconclusive)

**Q.** What about the AC50 (Cytochrome P450 3A4) of the same molecule?
**A.** 0.891 µM (inconclusive)

**Q.** And the AC50 (Cytochrome P450 2C9)?
**A.** 2.51 µM (inconclusive)

**Q.** Which results are given for O=C(Nc1nc2ccccc2n1CCOc1ccc(Cl)cc1)c1ccco1?
**A.** EC50 [4]: 2.02 µM (active); EC50 [5]: 8.97 µM (active); CC50 [6]: 34.4 µM (active); CC50 [7]: > 20 µM (active); CC50 [8]: 9.25 µM (active); IC50 (cells): 9.2 µM (active); CC50 (Vero): 14 µM (active)

**Q.** For N#C/C(=C\c1ccc(OCc2ccc(Br)cc2)cc1)C(=O)Nc1cccc(C(=O)O)c1, which IC50 [9] is on record?
**A.** 3.5 µM (active)

**Q.** What about the IC50 [10] of the same molecule?
**A.** 0.714 µM (active)

**Q.** What about the IC50 [11] of the same molecule?
**A.** 0.925 µM (active)

**Q.** What about the IC50 [12] of the same molecule?
**A.** 0.343 µM (active)

**Q.** And the IC50 [13]?
**A.** 3.37 µM (active)

**Q.** What about the IC50 [14] of the same molecule?
**A.** 1.94 µM (active)

**Q.** What about the IC50 [15] of the same molecule?
**A.** 1.83 µM (active)

**Q.** With COc1ccccc1-c1nnc2sc(-c3cc4ccccc4o3)nn12 as the molecule, how does the IC50 (J774.A1) read?
**A.** > 25 µM (inactive)

**Q.** With O=C(CSc1nc2ccccc2s1)N1c2ccccc2Sc2ccccc21 as the molecule, how does the EC50 [16] read?
**A.** 12.7 µM (inactive)
